From ChEMBL document CHEMBL1158840, “Cytotoxic prenylflavonoids from Artocarpus elasticus” (2005)
In brackets after ≈: the same amount, converted by molar mass. Activity calls are given as the source filed them. No cut-off for these calls is given here.

What was measured:
[1] = test system: A549; assay: Cytotoxicity against human A549 cells by MTT assay; type: functional; conditions: for EC50: read-out: ED50 (the source's name)
[2] = test system: HT-29; assay: Cytotoxicity against human HT-29 cells by MTT assay; type: functional; conditions: for EC50: read-out: ED50 (the source's name)
[3] = test system: MCF7; assay: Cytotoxicity against human MCF7 cells by MTT assay; type: functional; conditions: for EC50: read-out: ED50 (the source's name)
[4] = (§1) Cytotoxicity against human Hep3B cells by MTT assay; type: functional, Hep 3B2; conditions: read-out: ED50 (the source's name)
[5] = test system: Hep 3B2; assay: as §1; type: functional

Row | Compound | EC50 [1] | EC50 [2] | EC50 [3] | EC50 [4] | Activity [1] | Activity [2] | Activity [3] | Activity [5]
1 | O=c1[nH]cc(F)c(=O)[nH]1 [FLUOROURACIL] | 0.4 µg/mL (≈ 3.08 µM) | 0.2 µg/mL (≈ 1.54 µM) | 0.2 µg/mL (≈ 1.54 µM) | 0.6 µg/mL (≈ 4.61 µM) |  |  |  | 
2 | COc1cc(O)c2c3c1-c1oc4c(/C=C(\O)C(C)(C)O)c(O)cc(O)c4c(=O)c1C[C@@H]3C(C)(C)O2 |  |  |  |  | inactive | inactive | inactive | inactive
3 | C=C(C)C1Cc2c(oc3c(CC=C(C)C)c4c(c(O)c3c2=O)C=CC(C)(C)O4)-c2c(O)cc(O)c(O)c21 (stereo not given) |  |  |  |  | inactive | inactive | inactive | inactive
4 | CC1(C)C=Cc2c(cc(O)c3c(=O)c4c(oc23)-c2c(O)cc(O)c3c2C(C4)C(C)(C)O3)O1 (stereo not given) |  |  |  |  | inactive | inactive | inactive | inactive
5 | CC(=O)C1c2oc3c4c(cc(O)c3c(=O)c2CC2C1C(=O)OC2(C)C)OC(C)(C)C=C4 (stereo not given) |  |  |  |  | inactive | inactive | inactive | inactive
6 | CC(C)=CCC/C(C)=C/Cc1c2c(c3oc4c(c(=O)c3c1O)CC1c3c(c(O)cc(O)c3-4)OC1(C)C)C=CC(C)(C)O2 (stereo not given) |  |  |  |  | inactive | inactive | inactive | inactive
7 | CC(C)=CCc1c2c(c(O)c3c(=O)c(C(O)C=C(C)C)c(-c4cc(O)c(O)cc4O)oc13)C=CC(C)(C)O2 (stereo not given) |  |  |  |  | inactive | inactive | inactive | inactive
8 | C=C(C)C1Cc2c(oc3cc(O)cc(O)c3c2=O)-c2c(O)c3c(c(O)c21)OC(C)(C)C=C3 (stereo not given) [ARTELASTOXANTHONE] | 10 µg/mL (≈ 23 µM) | 3.9 µg/mL (≈ 8.98 µM) | 3.1 µg/mL (≈ 7.14 µM) | 3.2 µg/mL (≈ 7.37 µM) |  |  |  | 
9 | COc1cc(O)c(-c2oc3c(CC=C(C)C)c(O)cc(O)c3c(=O)c2C(O)C=C(C)C)cc1O (stereo not given) |  |  |  |  | inactive | inactive | inactive | inactive
10 | C=C(C)C1CC(=O)c2oc3c4c(cc(O)c3c(=O)c2C1)OC(C)(C)C=C4 (stereo not given) [ARTONOL A] | 1.1 µg/mL (≈ 3.12 µM) | 3.1 µg/mL (≈ 8.8 µM) | 2.7 µg/mL (≈ 7.66 µM) | 21.9 µg/mL (≈ 62.1 µM) |  |  |  | 
